From ChEMBL document CHEMBL4819001, “Discovery of tetrahydroquinolines and benzomorpholines as novel potent RORγt agonists” (Eur J Med Chem, 2021) come the findings set out here.

Test [1] concerns the target T1, Nuclear receptor ROR-gamma (Homo sapiens, UniProt P51449).
T1 sequence (P51449 whole entry): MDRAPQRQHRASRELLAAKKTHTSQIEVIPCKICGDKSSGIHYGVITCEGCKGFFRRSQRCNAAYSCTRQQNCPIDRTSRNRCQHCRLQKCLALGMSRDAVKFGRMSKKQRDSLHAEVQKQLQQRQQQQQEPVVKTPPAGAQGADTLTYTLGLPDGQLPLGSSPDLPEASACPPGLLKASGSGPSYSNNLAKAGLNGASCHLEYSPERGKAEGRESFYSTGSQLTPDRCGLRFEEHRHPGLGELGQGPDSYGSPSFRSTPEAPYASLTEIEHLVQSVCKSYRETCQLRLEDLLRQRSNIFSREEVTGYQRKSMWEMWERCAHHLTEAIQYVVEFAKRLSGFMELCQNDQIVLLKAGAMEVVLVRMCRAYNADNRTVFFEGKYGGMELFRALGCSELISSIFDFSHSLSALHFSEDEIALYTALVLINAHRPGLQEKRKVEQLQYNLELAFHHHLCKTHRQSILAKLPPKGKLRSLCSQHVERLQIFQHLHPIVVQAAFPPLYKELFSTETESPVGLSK
Nature of the test: Agonist activity at APC-labelled RORgammat (unknown origin) assessed as biotinylated SRC recruitment measured after 1 hr by dual FRET assay.

Test [2] concerns the target T1, Nuclear receptor ROR-gamma. Description: Agonist activity at human RORgammat LBD expressed in HEK293T cells assessed increase in Gal4 reporter gene transcription measured after 16 to 20 hrs by luciferase reporter gene assay. The test is classed as cell-based. A general note: Reporter assays use an easily measured gene product as a stand-in for the process of interest.

Test [3] concerns the target T2, Nuclear receptor ROR-gamma (Mus musculus) (UniProt P51450).
T2 sequence (whole entry): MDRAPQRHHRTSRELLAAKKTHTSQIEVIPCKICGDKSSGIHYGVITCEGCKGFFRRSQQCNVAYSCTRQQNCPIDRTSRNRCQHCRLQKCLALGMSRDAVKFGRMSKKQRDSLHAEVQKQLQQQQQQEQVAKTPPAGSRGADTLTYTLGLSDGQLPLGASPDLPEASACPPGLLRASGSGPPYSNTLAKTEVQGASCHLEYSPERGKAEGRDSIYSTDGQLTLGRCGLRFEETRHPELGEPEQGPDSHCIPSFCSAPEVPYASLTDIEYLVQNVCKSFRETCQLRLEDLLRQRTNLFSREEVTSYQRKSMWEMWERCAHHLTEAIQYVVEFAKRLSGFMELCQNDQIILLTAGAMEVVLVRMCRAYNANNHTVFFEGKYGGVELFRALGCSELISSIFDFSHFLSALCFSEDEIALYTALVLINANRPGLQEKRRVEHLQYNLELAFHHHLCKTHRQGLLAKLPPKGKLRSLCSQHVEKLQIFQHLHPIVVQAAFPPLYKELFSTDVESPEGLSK
Description: Agonist activity at RORgammat in mouse CD4+ Th17 cells assessed as promotion of IL17 production at 30 nM measured after 4 days by intracellular staining based flow cytometry. As to conditions: filed as agonist, time 4.0 day. The test is classed as cell-based. On the technique in general: Flow cytometry measures light scatter and fluorescence of single cells or particles in a stream.

Test [4] deals with T2, Nuclear receptor ROR-gamma (Mus musculus). Description: Agonist activity at RORgammat in mouse CD4+ Th17 cells assessed as promotion of IL17 production at 300 nM measured after 4 days by intracellular staining based flow cytometry. The test is classed as cell-based. As to conditions: filed as agonist, time 4.0 day.
Test [5] concerns the target T1, Nuclear receptor ROR-gamma. Nature of the test: Inverse agonist activity at APC-labelled RORgammat (unknown origin) assessed as inhibition of biotinylated SRC recruitment measured after 1 hr by dual FRET assay.
For test [6], the target named is T3, Nuclear receptor ROR-gamma (Homo sapiens) (UniProt P51449).
T3 sequence (whole entry): T1 sequence (P51449 whole entry)
Nature of the test: Inverse agonist activity at human RORgammat LBD expressed in HEK293T cells assessed inhibition of Gal4 reporter gene transcription measured after 16 to 20 hrs by luciferase reporter gene assay relative to control. As to conditions: filed as inverse agonist, time 16-20 hrs. The test is classed as cell-based.

In test [7] the target is T1, Nuclear receptor ROR-gamma. Nature of the test: Inverse agonist activity at human RORgammat LBD expressed in HEK293T cells assessed inhibition of Gal4 reporter gene transcription measured after 16 to 20 hrs by luciferase reporter gene assay. The test is classed as cell-based.

`CCS(=O)(=O)c1ccc(CC(=O)Nc2ccc(CCN3CCOc4ccc(OC(C)C)cc43)cc2)cc1`: the EC50 in test [1] was 7.3 nM.
On to `CCS(=O)(=O)c1ccc(CNC(=O)c2ccc(CCN3CCCc4ccc(CC(C)C)cc43)cc2)nc1`, for which the EC50 in test [2] stood at 242 nM; in test [1], 8.9 nM. Further, the Activity amounted to 56.3% in test [3] and 104% in test [4].
For `CCS(=O)(=O)c1ccc(CC(=O)Nc2ccc(CCN3CCCc4ccc(CC5CC5)cc43)cc2)cc1`, in test [1], the EC50 came to 12.8 nM.
For the molecule `CCS(=O)(=O)c1ccc(CNC(=O)c2ccc(CCN3CCCc4ccc(OC5CCC5)cc43)cc2)nc1`, the EC50 in test [1] amounted to 12.2 nM.
Regarding `CS(=O)(=O)c1ccc(CC(=O)Nc2ccc(CCN3CCOc4ccc(C(O)(C(F)(F)F)C(F)(F)F)cc43)cc2)cc1`, the IC50 in test [5] came to 14.6 nM.
As for `CCS(=O)(=O)c1ccc(CC(=O)Nc2ccc(CCN3CCCc4ccc(CC(C)C)cc43)c(F)c2)cc1`, the EC50 in test [1] was found to be 13 nM.
For the molecule `CC(C)Oc1ccc2c(c1)N(CCc1ccc(C(=O)NCc3ccc(S(C)(=O)=O)cn3)cc1)CCO2`, the EC50 amounted to 107 nM in test [2] and 7.5 nM in test [1]. The Activity in test [3] was 45.2%; in test [4] it was 59.4%.
Turning to `CCS(=O)(=O)c1ccc(CC(=O)Nc2ccc(CCN3CCCc4ccc(F)cc43)cc2)cc1`, in test [1], the EC50 was found to be 11.5 nM.
As for `CCS(=O)(=O)c1ccc(CC(=O)Nc2ccc(CCN3CCCc4ccc(CC(C)(C)C)cc43)cc2)cc1`, in test [1], the EC50 is 30.3 nM.
For `CCS(=O)(=O)c1ccc(CC(=O)Nc2ccc(CCN3CCCc4ccccc43)cc2)cc1`, the EC50 in test [1] worked out at 21.5 nM.
On the same count and under the same terms, for `CCS(=O)(=O)c1ccc(CC(=O)Nc2ccc(CCN3CCCc4ccc(OC5COC5)cc43)cc2)cc1` the value was 6.6 nM.
Turning to `CCS(=O)(=O)c1ccc(CNC(=O)Nc2ccc(CCN3CCCc4ccc(CC(C)C)cc43)cc2)cc1`, the EC50 in test [1] was determined as 25.9 nM.
Turning to `CS(=O)(=O)c1ccc(CC(=O)Nc2ccc(CCN3CCOc4ccc(C(F)(C(F)(F)F)C(F)(F)F)cc43)cc2)cc1`, the EC50 in test [1] stood at 46 nM.
On the same count and under the same terms, the figure for `CCS(=O)(=O)c1ccc(CC(=O)Nc2ccc(CCN3CCCc4ccc(C)cc43)cc2)cc1` is 16.7 nM.
Same read-out and setting: the figure for `CCS(=O)(=O)c1ccc(CNC(=O)c2ccc(CCN3CCCc4ccc(OC(C)C)cc43)cc2)nc1` is 8.9 nM.
Consider `CCS(=O)(=O)c1ccc(CC(=O)Nc2ccc(CC(=O)N3CCCc4ccc(CC(C)C)cc43)cc2)cc1`, for which the Imax in test [6] worked out at 101%. Also, the results for the IC50 in test [5] and in test [7] were 31.5 nM and 151 nM, respectively.
`CCS(=O)(=O)c1ccc(CC(=O)Nc2ccc(CCN3CCCc4ccc(OC5CCC5)cc43)cc2)cc1`: the EC50 in test [1] amounted to 15.6 nM.
As to `CCS(=O)(=O)c1ccc(C(CO)NC(=O)c2ccc(CCN3CCCc4ccc(CC(C)C)cc43)cc2)cc1` (centres undefined), the EC50 in test [1] was 20.9 nM.
For `CCS(=O)(=O)c1ccc(CNC(=O)c2ccc(CCN3CCOc4ccc(OC(C)C)cc43)cc2)nc1`, the EC50 was determined as 135 nM in test [2] and 4.6 nM in test [1].
On to `CCS(=O)(=O)c1ccc(CC(=O)Nc2ccc(CCN3CCCc4ccc(C(C)C)cc43)cc2)cc1`, for which the EC50 in test [1] amounted to 22.1 nM.
On the same count and under the same terms, the figure for `CC(Oc1ccc2c(c1)N(CCc1ccc(NC(=O)Cc3ccc(S(C)(=O)=O)cc3)cc1)CCO2)C(F)(F)F` (centres undefined) is 4.4 nM.
Same read-out and setting: for `CCS(=O)(=O)c1ccc(CC(=O)Nc2ccc(CCN3CCCc4ccc(C=C(C)C)cc43)cc2)cc1` the value was 5.3 nM; for `CCS(=O)(=O)c1ccc(CNC(=O)c2ccc(CCN3CCCc4ccc(OC5COC5)cc43)cc2)nc1`, 7.7 nM.
Turning to `CCS(=O)(=O)c1ccc(CNC(=O)c2ccc(CCN3CCOc4ccc(CC(C)C)cc43)cc2)nc1`, the EC50 in test [1] is 7.1 nM.
On the same count and under the same terms, the figure for `CC(C)Oc1ccc2c(c1)N(CCc1ccc(NC(=O)Cc3ccc(S(C)(=O)=O)cc3)cc1)CCO2` is 4.4 nM.

As a reminder, the EC50 is the concentration giving half of the maximal effect. A word on the IC50: it is the concentration that inhibits the measured activity by half.
